# Patent publication US20230137491A1, “PEPTIDES AND USES THEREOF” (SINTICA BIOTECH SOCIETÀ A RESPONSABILITÀ LIMITATA …, priority 2020, published 2023)
# Non-standard residues stand in square brackets, D forms with d. methoxy‑PEG 20 kDa = linear 20 kDa methoxy-PEG conjugated through D-Cys sulfur
# How the values were obtained:
# [1] = tested on: WM266-4 melanoma cell line; test: Cell death analysis by flow cytometry (propidium iodide, sub-G1); assay type: cell-based, human; settings: WM266-4, 24 h and 48 h, versus diluent
# Experimental: FIG. 5. […] WM266-4 melanoma cell line was cultured and the rate of apoptosis measured after treatment with the peptide (XYZ) as compared to diluent at different time points by flow cytometry (A) counting % of cells in sub-G1 with propidium iodide staining or (B) counting % of Annexin positive cells staining. Student's t-test was used for comparison of the means
# WM266-4 cell line was treated with the peptide (XYZ) or diluent at different time points. After 24 and 48 h, cells were trypsinised and resuspended in hypotonic fluorochrome solution: 50 μg/ml propidium iodide containing 0.1% sodium citrate and 0.5% Triton X-100 (Sigma Aldrich, Milano, Italy). After 15 min, cells were analyzed using an Epics XL flow cytometer (Coulter Electronics Inc., Hialeah, Fla., USA). Apoptosis was detected by evaluating the reduced fluorescence of the DNA-binding dye PI in the apoptotic nuclei.
# In particular, XYZ triggers melanoma apoptosis, a most well-known type of programmed cell death in culture. […] In details, melanoma cell lines, gently were trypsinised and washed once with serum-containing media before incubation with annexin V-FITC or with propidium iodide. 24 h and 48 h later, FITC signal detector or sub G0/G1 peak for annexin or PI staining respectively, were observed by flow cytometry.
# [2] = tested on: SKMel28 melanoma cell lines overexpressing CD271; test: MTT assay in cells overexpressing CD271 (CD271 viral vector); assay type: cell-based, human; settings: SKMel28 with CD271 viral vector
# Description: FIG. 6. The peptide reduces melanoma cell viability through CD271. WM115 melanoma cell line was transiently transfected with CD271 siRNA, as shwon by western blotting. MTT assay was used to measure cell viability after treatment with the peptide (XYZ) or the diluent in siRNA and scramble cells. SKme128 melanoma cell line was transiently transfected with CD271 mRNA, as shown by western blotting. MTT assay was used to measure cell viability after treatment with the peptide (XYZ) or the diluent in siRNA and scramble cells. Student's t-test was used for comparison of the means.
# 5×10^3 cells/well were seeded in 96-well culture plates. At different time points, cells were incubated with 0.5% MTT (3-(4,5-dimethylthiazol-2-yl)-2,5-diphenyltetrazolium bromide) for 4 h at 37° C. and then dissolved with 100 μl Isopropanol with 0.04N HCl. The plate was read at 560 nm with a reference filter of 650 nm. Results are expressed as viability percentage, as compared to control.
# Skme128 cell line was plated according to the liquid overlay method. After 24 h, cells were transduced by infection with viral supernatant generated by CD271-LNSN packaging cells or by LNSN packaging cells (kindly provided from F. Mavilio) in appropriate medium for melanoma, as described previously in the presence of polybrene (8 μg/ml). 48 h after infection cells were lysed for WB analysis or seeded for MTT assay.
# [3] = tested on: SKmel 28 cell line in zebrafish; test: Zebrafish xenotransplant with SKmel28 cell line; assay type: in vivo; settings: SKmel28, embryos with metastasis counted 5 days post injection
# Experimental: FIG. 12. […] SKMel28 melanoma cell line was treated with XYZ, DTIC, the peptide in combination with DTIC, or left untreated. They were stained with Vibrant Cell Labelling Solution (red) and injected into the yolk of transparent zebrafish larvae and monitored. The number of embryos with metastasis was counted at 5 days post injection.
# Zebrafish handling was performed at the Zebrafish Centre of the University of Padova, Italy, under ethical committee (OPBA) authorization 407/2015-PR. Zebrafish embryos were obtained from natural spawning of albino adults, raised following standard protocols (Westerfield, M et al., 2000) and staged according to Kimmel et al. (1995). […] Zebrafishes were monitored daily and documented from 1 day post injection (dpi) up to 1 week (experimental endpoint). […]
# For xenotransplantation, albino embryos were mechanically dechorionated at 2 days post-fertilisation, anesthetized with tricaine 0.16 mg/ml and placed along plastic lanes immersed in 2% methylcellulose/PBS. […] Stained cells were loaded in a glass capillary needle and microinjected into the yolk (about 50 cells/embryo), Xenotransplanted embryos were monitored daily and documented from one day post injection up to one week.
substance,measurement,setting,value
Ac-DMet-DLeu-Gly-DIle-DIle-DAla-Gly-DLys-DAsn-DSer-Gly-DCys-NH2 with a linear 20 kDa methoxy-PEG polymer conjugated to the D-Cys residue through the sulfur atom of the latter (Ac-[dM][dL]G[dI][dI][dA]G[dK][dN][dS]G[dC](methoxy‑PEG 20 kDa)-NH2) [XYZ],"rate of apoptosis (propidium iodide, subG1 analysis)",[1],significantly higher rate of apoptosis than diluent alone
same,cell death (MTT assay) in CD271-overexpressing cells,[2],induces cell death to a greater extent
same,full metastasis in xenotransplanted zebrafish,[3],reduces full metastasis
